Reference: ChEMBL document CHEMBL3098094, “Synthesis and biological evaluation of novel N-substituted 1H-dibenzo[a,c]carbazole derivatives of dehydroabietic acid as potential antimicrobial agents” (2014)
≈ marks a conversion by molar mass, not a printed value.

Experiments:
Assay type in all cases: functional
[1] = tested on: Aspergillus niger; test: Antimicrobial activity against Aspergillus niger CGMCC3.316 after 48 hrs by twofold serial microdilution method; details: CGMCC3.316, 48 h
[2] = tested on: Pseudomonas fluorescens; test: Antimicrobial activity against Pseudomonas fluorescens CGMCC1.1828 after 24 hrs by twofold serial microdilution method; details: CGMCC1.1828, 24 h
[3] = tested on: Bacillus subtilis; test: Antimicrobial activity against Bacillus subtilis CGMCC1.1162 after 24 hrs by twofold serial microdilution method; details: CGMCC1.1162, 24 h
[4] = tested on: Escherichia coli; test: Antimicrobial activity against Escherichia coli CGMCC1.1571 after 24 hrs by twofold serial microdilution method; details: CGMCC1.1571, 24 h
[5] = tested on: Candida albicans; test: Antimicrobial activity against Candida albicans CGMCC2.2086 after 48 hrs by twofold serial microdilution method; details: CGMCC2.2086, 48 h
[6] = tested on: Staphylococcus aureus; test: Antimicrobial activity against Staphylococcus aureus CGMCC1.1361 after 24 hrs by twofold serial microdilution method; details: CGMCC1.1361, 24 h
[7] = tested on: Candida tropicalis; test: Antimicrobial activity against Candida tropicalis CGMCC2.3967 after 48 hrs by twofold serial microdilution method; details: CGMCC2.3967, 48 h

Compound: COC(=O)[C@]1(C)CCC[C@]2(C)c3ccc(C(C)C)cc3-c3c(c4ccccc4n3CCNc3ccc([N+](=O)[O-])cc3)[C@@H]12
- MIC [1]: > 100 µg/mL
- MIC [2]: 15.6 µg/mL (≈ 27.6 µM)
- MIC [3]: 15.6 µg/mL (≈ 27.6 µM)
- MIC [4]: 31.2 µg/mL (≈ 55.2 µM)
- MIC [5]: 31.2 µg/mL (≈ 55.2 µM)
- MIC [6]: 7.8 µg/mL (≈ 13.8 µM)
- MIC [7]: 62.5 µg/mL (≈ 110 µM)

Compound: COC(=O)[C@]1(C)CCC[C@]2(C)c3ccc(C(C)C)cc3-c3c(c4ccccc4n3CCNc3ccc(Br)cc3)[C@@H]12
- MIC [1]: > 100 µg/mL
- MIC [2]: > 100 µg/mL
- MIC [3]: 31.2 µg/mL (≈ 52 µM)
- MIC [4]: > 100 µg/mL
- MIC [5]: > 100 µg/mL
- MIC [6]: 62.5 µg/mL (≈ 104 µM)
- MIC [7]: > 100 µg/mL

Compound: COC(=O)[C@]1(C)CCC[C@]2(C)c3ccc(C(C)C)cc3-c3c(c4ccccc4n3CCBr)[C@@H]12
- MIC [1]: > 100 µg/mL
- MIC [2]: > 100 µg/mL
- MIC [3]: 31.2 µg/mL (≈ 61.4 µM)
- MIC [4]: > 100 µg/mL
- MIC [5]: > 100 µg/mL
- MIC [6]: 62.5 µg/mL (≈ 123 µM)
- MIC [7]: > 100 µg/mL

Compound: COC(=O)[C@]1(C)CCC[C@]2(C)c3ccc(C(C)C)cc3-c3c(c4ccccc4n3CCn3cnc4ccccc43)[C@@H]12
- MIC [1]: > 100 µg/mL
- MIC [2]: 31.2 µg/mL (≈ 57.2 µM)
- MIC [3]: 31.2 µg/mL (≈ 57.2 µM)
- MIC [4]: 31.2 µg/mL (≈ 57.2 µM)
- MIC [5]: 31.2 µg/mL (≈ 57.2 µM)
- MIC [6]: 31.2 µg/mL (≈ 57.2 µM)
- MIC [7]: 62.5 µg/mL (≈ 115 µM)

Compound: COC(=O)[C@]1(C)CCC[C@]2(C)c3ccc(C(C)C)cc3-c3c(c4ccccc4n3CCN(CCO)CCO)[C@@H]12
- MIC [1]: > 100 µg/mL
- MIC [2]: 62.5 µg/mL (≈ 117 µM)
- MIC [3]: 62.5 µg/mL (≈ 117 µM)
- MIC [4]: 62.5 µg/mL (≈ 117 µM)
- MIC [5]: 62.5 µg/mL (≈ 117 µM)
- MIC [6]: > 100 µg/mL
- MIC [7]: 31.2 µg/mL (≈ 58.6 µM)

Compound: COC(=O)[C@]1(C)CCC[C@]2(C)c3ccc(C(C)C)cc3-c3c(c4ccccc4n3CCNc3ccc(Cl)cc3)[C@@H]12
- MIC [1]: > 100 µg/mL
- MIC [2]: 62.5 µg/mL (≈ 113 µM)
- MIC [3]: 31.2 µg/mL (≈ 56.2 µM)
- MIC [4]: > 100 µg/mL
- MIC [5]: 62.5 µg/mL (≈ 113 µM)
- MIC [6]: 31.2 µg/mL (≈ 56.2 µM)
- MIC [7]: > 100 µg/mL

Compound: COC(=O)[C@]1(C)CCC[C@]2(C)c3ccc(C(C)C)cc3-c3c(c4ccccc4n3CCN(C)C)[C@@H]12
- MIC [1]: > 100 µg/mL
- MIC [2]: 62.5 µg/mL (≈ 132 µM)
- MIC [3]: 62.5 µg/mL (≈ 132 µM)
- MIC [4]: > 100 µg/mL
- MIC [5]: > 100 µg/mL
- MIC [6]: > 100 µg/mL
- MIC [7]: > 100 µg/mL

Compound: COC(=O)[C@]1(C)CCC[C@]2(C)c3ccc(C(C)C)cc3-c3c(c4ccccc4n3CCn3ncnn3)[C@@H]12
- MIC [1]: > 100 µg/mL
- MIC [2]: 62.5 µg/mL (≈ 126 µM)
- MIC [3]: 31.2 µg/mL (≈ 62.7 µM)
- MIC [4]: 62.5 µg/mL (≈ 126 µM)
- MIC [5]: > 100 µg/mL
- MIC [6]: 31.2 µg/mL (≈ 62.7 µM)
- MIC [7]: > 100 µg/mL

Compound: COC(=O)[C@]1(C)CCC[C@]2(C)c3ccc(C(C)C)cc3-c3c(c4ccccc4n3CCn3c([N+](=O)[O-])cnc3C)[C@@H]12
- MIC [1]: > 100 µg/mL
- MIC [2]: 7.8 µg/mL (≈ 14.1 µM)
- MIC [3]: 0.9 µg/mL (≈ 1.62 µM)
- MIC [4]: 7.8 µg/mL (≈ 14.1 µM)
- MIC [5]: 31.2 µg/mL (≈ 56.2 µM)
- MIC [6]: 1.9 µg/mL (≈ 3.43 µM)
- MIC [7]: 31.2 µg/mL (≈ 56.2 µM)

Compound: NCC[C@H](O)C(=O)N[C@@H]1C[C@H](N)[C@@H](O[C@H]2O[C@H](CN)[C@@H](O)[C@H](O)[C@H]2O)[C@H](O)[C@H]1O[C@H]1O[C@H](CO)[C@@H](O)[C@H](N)[C@H]1O.O=S(=O)(O)O
- MIC [2]: 0.9 µg/mL
- MIC [3]: 0.9 µg/mL
- MIC [4]: 1.9 µg/mL
- MIC [6]: 0.9 µg/mL

Compound: CC(=O)N1CCN(c2ccc(OCC3COC(Cn4ccnc4)(c4ccc(Cl)cc4Cl)O3)cc2)CC1 (racemic) [KETOCONAZOLE]
- MIC [1]: 7.8 µg/mL (≈ 14.7 µM)
- MIC [5]: 3.9 µg/mL (≈ 7.34 µM)
- MIC [7]: 3.9 µg/mL (≈ 7.34 µM)

Compound: COC(=O)[C@]1(C)CCC[C@]2(C)c3ccc(C(C)C)cc3-c3c(c4ccccc4n3CCN3CCCC3)[C@@H]12
- MIC [1]: > 100 µg/mL
- MIC [2]: > 100 µg/mL
- MIC [3]: 31.2 µg/mL (≈ 62.6 µM)
- MIC [4]: > 100 µg/mL
- MIC [5]: > 100 µg/mL
- MIC [6]: 62.5 µg/mL (≈ 125 µM)
- MIC [7]: > 100 µg/mL

Compound: COC(=O)[C@]1(C)CCC[C@]2(C)c3ccc(C(C)C)cc3-c3[nH]c4ccccc4c3[C@@H]12
- MIC [1]: > 100 µg/mL
- MIC [2]: 62.5 µg/mL (≈ 156 µM)
- MIC [3]: 31.2 µg/mL (≈ 77.7 µM)
- MIC [4]: > 100 µg/mL
- MIC [5]: > 100 µg/mL
- MIC [6]: 62.5 µg/mL (≈ 156 µM)
- MIC [7]: > 100 µg/mL
